Results taken from EP0566020A1, “Benzimidazoles, pharmaceutical compositions thereof and processes for their preparation” (Dr. Karl Thomae GmbH, priority 1992, dated 1993).
pIC50: −log10 of the molar value.

Molecular target: T1, Angiotensin II-Rezeptor (Rattus norvegicus, UniProt P25095)
T1 construct: Das Gewebe (Rattenlunge) wird in Tris-Puffer; from tissue; host or cells: rat lung homogenate (membrane pellet, 20,000 x g)
T1 sequence (P25095 1-359): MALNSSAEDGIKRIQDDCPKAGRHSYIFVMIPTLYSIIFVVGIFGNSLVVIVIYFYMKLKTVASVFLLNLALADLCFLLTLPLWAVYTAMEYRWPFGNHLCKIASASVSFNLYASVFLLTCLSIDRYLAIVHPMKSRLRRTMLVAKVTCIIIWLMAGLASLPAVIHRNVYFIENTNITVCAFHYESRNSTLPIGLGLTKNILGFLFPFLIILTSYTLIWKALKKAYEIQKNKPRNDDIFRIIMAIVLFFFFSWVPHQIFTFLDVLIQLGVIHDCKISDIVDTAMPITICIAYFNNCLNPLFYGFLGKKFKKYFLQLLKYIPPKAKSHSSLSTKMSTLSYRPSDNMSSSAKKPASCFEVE
Assay: Angiotensin II receptor binding ([125I]-angiotensin II displacement, rat lung homogenate)
Set-up: species or system Ratte
Settings: Rattenlunge homogenate, 50 pM [¹²⁵I]-Angiotensin II, 60 Min. bei 37°C; read-out: IC₅₀
Method: Methodenbeschreibung Angiotensin II-Rezeptorbindung
Das Gewebe (Rattenlunge) wird in Tris-Puffer (50 mMol Tris, 150 mMol NaCl, 5 mMol EDTA, pH 7.40) homogenisiert und zweimal je 20 Min. bei 20.000 x g zentrifugiert. Das endgültige Pellet wird in Inkubations-Puffer (50 mMol Tris, 5 mMol MgCl₂, 0,2 % BSA, pH 7,40) 1:75, bezogen auf das Feuchtgewicht des Gewebes, resuspendiert. Je 0,1 ml Homogenat wird für 60 Min. bei 37°C mit 50 pM [¹²⁵I]-Angiotensin II (NEN, Dreieich, FRG) und steigenden Konzentrationen der Testsubstanz in einem Gesamtvolumen von 0,25 ml inkubiert. Die Inkubation wird durch rasche Filtration durch Glasfiber-Filtermatten beendet. Die Filter werden je 4 ml eiskaltem Puffer (25 mMol Tris, 2.5 mMol MgCl₂, 0,1 % BSA, pH 7,40) gewaschen. Die gebundene Radioaktivität wird in einem Gamma-Counter ermittelt. Aus der Dosis-Wirkungskurve wird der entsprechende IC₅₀-Wert ermittelt.

Structure (SMILES)	pIC50
CCCc1nc2c(C)cc(-c3nc4c([nH]3)CCCC4)cc2n1Cc1ccc(-c2ccccc2C(=O)O)cc1 [Substanz A, 4'-[[2-n-Propyl-4-methyl-6-(5,6,7,8-tetrahydrobenzimidazol-2-yl)-1H-benzimidazol-1-yl]-methyl]-biphenyl-2-carbonsäure]	7.92
CCCc1nc2c(C)cc(-c3nc4c(n3C)CCCC4)cc2n1Cc1ccc(-c2ccccc2C(=O)O)cc1 [Substanz B, 4'-[[2-n-Propyl-4-methyl-6-(1-methyl-5,6,7,8-tetrahydrobenzimidazol-2-yl)-1H-benzimidazol-1-yl]-methyl]-biphenyl-2-carbonsäure]	8.42
CCCc1nc2c(C)cc(-c3nc4c(n3C)CCCC4)cc2n1Cc1ccc(-c2ccccc2-c2nnn[nH]2)cc1 [Substanz C, 4'-[[2-n-Propyl-4-methyl-6-(1-methyl-5,6,7,8-tetrahydrobenzimidazol-2-yl)-1H-benzimidazol-1-yl]-methyl]-2-(1H-tetrazol-5-yl)biphenyl]	8.59
CCCc1nc2c(C)cc(-c3nc4c(n3Cc3ccccc3)CCCC4)cc2n1Cc1ccc(-c2ccccc2C(=O)O)cc1 [Substanz D, 4'-[[2-n-Propyl-4-methyl-6-(1-benzyl-5,6,7,8-tetrahydrobenzimidazol-2-yl)-1H-benzimidazol-1-yl]-methyl]-biphenyl-2-carbonsäure]	8.22
CCc1nc2c(C)cc(-c3nc4c(n3-c3ccccc3)CCCC4)cc2n1Cc1ccc(-c2ccccc2C(=O)O)cc1 [Substanz E, 4'-[[2-Ethyl-4-methyl-6-(1-phenyl-5,6,7,8-tetrahydrobenzimidazol-2-yl)-1H-benzimidazol-1-yl]-methyl]-biphenyl-2-carbonsäure-hydrat]	7.34
CCCc1nc2c(C)cc(-c3nc4c(n3CC(=O)O)CCCC4)cc2n1Cc1ccc(-c2ccccc2C(=O)O)cc1 [Substanz F, 4'-[[2-n-Propyl-4-methyl-6-(1-carboxymethyl-5,6,7,8-tetrahydrobenzimidazol-2-yl)-1H-benzimidazol-1-yl]-methyl]-biphenyl-2-carbonsäure-semihydrat]	7.42
CCc1nc2c(C)cc(-c3nc4c(n3CC)CCCC4)cc2n1Cc1ccc(-c2ccccc2-c2nnn[nH]2)cc1 [Substanz G, 4'-[[2-Ethyl-4-methyl-6-(1-ethyl-5,6,7,8-tetrahydro-benzimidazol-2-yl)-1H-benzimidazol-1-yl]-methyl]-2-(1H-tetrazol-5-yl)-biphenyl-hydrat]	8.80
CCCc1nc2c(C)cc(C3=NC(C)(C)CO3)cc2n1Cc1ccc(-c2ccccc2C(=O)O)cc1 [Substanz H, 4'-[[2-n-Propyl-4-methyl-6-(4,4-dimethyl-oxazolin-2-yl)-1H-benzimidazol-1-yl]-methyl]-biphenyl-2-carbonsäure-di-trifluoracetat]	7.43
CCCc1nc2c(C)cc(-c3nc(-c4ccccc4)c(C)n3C)cc2n1Cc1ccc(-c2ccccc2C(=O)O)cc1 [Substanz I, 4'-[[2-n-Propyl-4-methyl-6-(1,5-dimethyl-4-phenyl-imidazol-2-yl)-1H-benzimidazol-1-yl]-methyl]-biphenyl-2-carbonsäure-hydrat]	8.49
CCCc1nc2c(C)cc(-c3nc(C(C)C)c(C)n3C)cc2n1Cc1ccc(-c2ccccc2C(=O)O)cc1 [Substanz K, 4'-[[2-n-Propyl-4-methyl-6-(4-isopropyl-1,5-dimethyl-imidazol-2-yl)-1H-benzimidazol-1-yl]-methyl]-biphenyl-2-carbonsäure x 1,25 Wasser]	7.71
